Experimental data published in patent EP3381898A1, “SYMMETRICAL TRIS-ARYL-AMIDE DERIVATIVES AND THEIR USE AS ANTI-HEPARANASE” (priority 2017, dated 2018).

Assays:
Assay type in all cases: cell-based, human
FGF-1 = experiment: Real-Time Quantitative PCR of mRNA gene expression in HT1080 cells; details: 24 h, 2.5 uM, mean value
Procedure: (§1) To evaluate the effect of heparanase inhibitors on the tumor transcription of genes encoding for proangiogenic factors, such as FGF1/2, VEGF, MMP-9, HSPE-1, the relative mRNA levels were analyzed by quantitative Real-Time Quantitative PCR.
(§2) To perform the assay, HT1080 (human fibrosarcoma) cells were cultured in complete medium containing 10%FCS (fetal calf serum). Cells were plated in 24-well plates and treated at fixed concentration (i.e., highest non-toxic concentration) of test compounds. After 24 h, cells were detached, collected and total RNA extracted by RNeasy Mini Kit (QIAGEN). Following reverse transcription step, FGF1/2, VEGF, MMP-9, HSPE-1 mRNA levels, were quantified by qPCR using the advanced Universal SYBR Green Supermix (Bio Rad) and ABI PRISM 7900HT Thermal Cycler System (Perkin Elmer), according to the manufacturer's instructions. Appropriate no-RT and non-template controls were included in each 96-well PCR reaction, and dissociation analysis was performed at the end of each run to confirm the specificity of the reaction. Relative levels of RNA were calculated using the ddCt method. Standard curve and sample data were run in duplicate. In Table 4 a mean value is reported.

FGF-2 = experiment: as above; details: 24 h, 2.5 uM, mean value
Procedure: as §1, §2

HPSE-1 = experiment: as above; details: 24 h, 2.5 uM, mean value
Procedure: as §1, §2

MMP-9 = experiment: as above; details: 24 h, 2.5 uM, mean value
Procedure: as §1, §2

VEGF = experiment: as above; details: 24 h, 2.5 uM, mean value
Procedure: as §1, §2

[1] = tested on: genes encoding for proangiogenic factors; experiment: Real-Time Quantitative PCR in HT1080 cells, summary statement for all factors; details: 2.5 µM, result in words
Procedure: as §1
as §2, with “reported. […]” for “reported.”

## 2,2'-{carbonylbis[imino[5-(trifluoromethyl)-3,1-phenylene]carbonylimino(1-methyl-1H-pyrrole-4,2-diyl)carbonylimino-3,1-phenylene(1-oxoethane-2,1-diyl)imino]}diethanoic acid [Compound 12i]
FGF-1
  Gene Expression (% mRNA vs. control) FGF-1: ~ 53%
FGF-2
  Gene Expression (% mRNA vs. control) FGF-2: ~ 82%
HPSE-1
  Gene Expression (% mRNA vs. control) HPSE-1: ~ 63%
MMP-9
  Gene Expression (% mRNA vs. control) MMP-9: ~ 50%
VEGF
  Gene Expression (% mRNA vs. control) VEGF: ~ 55%
[1]
  inhibition of genes expression encoding for proangiogenic factors: significant inhibition
